In patent publication US11649255B2, “Indazoles as hematopoietic progenitor kinase 1 (HPK1) inhibitors and methods using same” (1st Biotherapeutics, Inc., priority 2020, dated 2023) one finds IC50 data, which are given here for 29 compounds.

What is called IC50 is the concentration needed to halve the response being measured.

Where only a bound is given, the exact number is not on record here.

The target of this assay is recombinant human HPK1 (Homo sapiens (Human), UniProt Q92918). The assay can be described thus: HPK1 kinase assay (ADP-Glo). It is filed as biochemical. Conditions: 25 μM ATP, MBP substrate. In short, it runs like this: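 Activity was read as ADP formed, detected by ADP-Glo luminescence after the reaction of 5 ng recombinant human HPK1 with MBP and ATP (stocks 0.5 μg/μl and 25 μM) for 40 min at 30 °C. Buffer was Tris pH 7.5 with MgCl2, BSA and DTT, with compound in 0.5% DMSO. IC50 came from inhibition curves.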
Chain of recombinant human HPK1 (Q92918 whole entry): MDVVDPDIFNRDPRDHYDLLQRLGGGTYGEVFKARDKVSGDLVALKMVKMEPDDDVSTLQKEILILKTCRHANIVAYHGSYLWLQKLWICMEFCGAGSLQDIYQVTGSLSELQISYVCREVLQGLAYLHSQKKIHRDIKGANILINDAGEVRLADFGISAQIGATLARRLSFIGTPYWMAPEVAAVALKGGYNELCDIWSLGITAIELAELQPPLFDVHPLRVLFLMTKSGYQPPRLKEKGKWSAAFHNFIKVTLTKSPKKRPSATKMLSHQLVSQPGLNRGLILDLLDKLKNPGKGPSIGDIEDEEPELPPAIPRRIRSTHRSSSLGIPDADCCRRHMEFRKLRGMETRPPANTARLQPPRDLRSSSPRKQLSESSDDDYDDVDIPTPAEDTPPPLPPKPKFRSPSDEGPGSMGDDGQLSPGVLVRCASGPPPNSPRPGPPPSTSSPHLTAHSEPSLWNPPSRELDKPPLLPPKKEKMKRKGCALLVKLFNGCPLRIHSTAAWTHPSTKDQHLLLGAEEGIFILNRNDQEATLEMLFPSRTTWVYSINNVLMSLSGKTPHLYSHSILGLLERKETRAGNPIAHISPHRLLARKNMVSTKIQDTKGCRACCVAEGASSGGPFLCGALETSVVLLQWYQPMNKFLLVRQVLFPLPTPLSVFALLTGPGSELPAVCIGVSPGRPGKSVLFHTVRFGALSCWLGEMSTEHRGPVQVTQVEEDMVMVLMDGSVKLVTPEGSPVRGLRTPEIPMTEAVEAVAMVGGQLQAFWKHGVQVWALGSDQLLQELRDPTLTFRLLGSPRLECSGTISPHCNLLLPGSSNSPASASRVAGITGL
For `O=C(Nc1cn2cc(-c3c(Cl)c(F)c(-c4cnc[nH]4)c4[nH]ncc34)ccc2n1)[C@@H]1C[C@@H]1F` [Example 431, (1S,2S)-N-(6-(5-chloro-6-fluoro-7-(1H-imidazol-5-yl)-1H-indazol-4-yl)imidazo[1,2-a]pyridin-2-yl)-2-fluorocyclopropane-1-carboxamide], the IC50 was 0.101 to 0.5 µM.
In the case of `CC(=O)NC(C)c1c(F)c(Cl)c(-c2ccn3nc(NC(=O)[C@@H]4C[C@@H]4F)cc3c2)c2cn[nH]c12` (stereo partly drawn) [Example 663, (1S,2S)-N-(5-(7-(1-acetamidoethyl)-5-chloro-6-fluoro-1H-indazol-4-yl)pyrazolo[1,5-a]pyridin-2-yl)-2-fluorocyclopropane-1-carboxamide], the 50% inhibitory concentration (IC50) is < 0.1 µM.
The figure for `CCOc1c(F)c(F)c2[nH]ncc2c1-c1ccn2nc(NC(=O)[C@@H]3C[C@@H]3F)cc2c1` [Example 611, (1S,2S)-N-(5-(5-ethoxy-6,7-difluoro-1H-indazol-4-yl)pyrazolo[1,5-a]pyridin-2-yl)-2-fluorocyclopropane-1-carboxamide] is < 0.1 µM.
The figure for `O=C(Nc1nc2ccc(-c3cc(F)c(OC(F)(F)F)c4[nH]ncc34)nc2s1)[C@@H]1C[C@@H]1F` [Example 215, (1S,2S)-2-fluoro-N-(5-(6-fluoro-7-(trifluoromethoxy)-1H-indazol-4-yl)thiazolo[5,4-b]pyridin-2-yl)cyclopropane-1-carboxamide] is > 1 µM; for `CC(NC(=O)C(F)F)c1c(F)c(Cl)c(-c2ccc3nc(NC(=O)[C@@H]4C[C@@H]4F)cn3c2)c2cn[nH]c12` (stereo partly drawn) [Example 441, (1S,2S)-N-(6-(5-chloro-7-(1-(2,2-difluoroacetamido)ethyl)-6-fluoro-1H-indazol-4-yl)imidazo[1,2-a]pyridin-2-yl)-2-fluorocyclopropane-1-carboxamide] it is < 0.1 µM.
The value for `Cc1ccc2[nH]ncc2c1-c1ccc2nc(NC(=O)[C@@H]3C[C@@H]3F)sc2c1` [Example 2, (1S,2S)-2-fluoro-N-(6-(5-methyl-1H-indazol-4-yl)benzo[d]thiazol-2-yl)cyclopropane-1-carboxamide] was 0.101 to 0.5 µM; that for `CN(C)c1c(F)c(C(F)(F)F)c(-c2ccc3nc(NC(=O)[C@@H]4C[C@@H]4F)sc3n2)c2cn[nH]c12` [Example 207, (1S,2S)-N-(5-(7-(dimethylamino)-6-fluoro-5-(trifluoromethyl)-1H-indazol-4-yl)thiazolo[5,4-b]pyridin-2-yl)-2-fluorocyclopropane-1-carboxamide] was < 0.1 µM; that for `CNNc1c(F)c(Cl)c(-c2ccc3nc(NC(=O)[C@@H]4C[C@@H]4F)sc3n2)c2cn[nH]c12` [Example 191, (1S,2S)-N-(5-(5-chloro-6-fluoro-7-(2-methylhydrazineyl)-1H-indazol-4-yl)thiazolo[5,4-b]pyridin-2-yl)-2-fluorocyclopropane-1-carboxamide] was < 0.1 µM.
As to `O=C(Nc1cn2cc(-c3c(Cl)c(F)cc4[nH]ncc34)ccc2n1)C1CC1` [Example 242, N-(6-(5-chloro-6-fluoro-1H-indazol-4-yl)imidazo[1,2-a]pyridin-2-yl)cyclopropanecarboxamide], the IC50 fell in the range of 0.101 to 0.5 µM.
The figure for `CCc1ccc2[nH]ncc2c1-c1ccn2nc(NC(=O)[C@@H]3C[C@@H]3F)cc2c1` [Example 452, (1S,2S)-N-(5-(5-ethyl-1H-indazol-4-yl)pyrazolo[1,5-a]pyridin-2-yl)-2-fluorocyclopropane-1-carboxamide] is < 0.1 µM; for `NCC1CCN(c2c(F)c(Cl)c(-c3ccc4nc(NC(=O)[C@@H]5C[C@@H]5F)sc4c3)c3cn[nH]c23)C1` (stereo partly drawn) [Example 91, (1S,2S)-N-(6-(7-(3-(aminomethyl)pyrrolidin-1-yl)-5-chloro-6-fluoro-1H-indazol-4-yl)benzo[d]thiazol-2-yl)-2-fluorocyclopropanecarboxamide] it is 0.101 to 0.5 µM; for `CSc1n[nH]c2cc(F)c(C)c(-c3ccc4nc(NC(=O)[C@@H]5C[C@@H]5F)sc4n3)c12` [Example 148, (1S,2S)-2-fluoro-N-(5-(6-fluoro-5-methyl-3-(methylthio)-1H-indazol-4-yl)thiazolo[5,4-b]pyridin-2-yl)cyclopropane-1-carboxamide] it is > 1 µM.
The value for `O=C(Nc1nc2ccc(-c3c(Cl)ccc4[nH]ncc34)cc2s1)[C@@H]1C[C@@H]1F` [Example 30, (1S,2S)-N-(6-(5-chloro-1H-indazol-4-yl)benzo[d]thiazol-2-yl)-2-fluorocyclopropane-1-carboxamide] was 0.101 to 0.5 µM.
The value for `CNNc1c(F)c(Cl)c(-c2ccn3nc(NC(=O)[C@@H]4C[C@@H]4F)cc3c2)c2cn[nH]c12` [Example 553, (1S,2S)-N-(5-(5-chloro-6-fluoro-7-(2-methylhydrazineyl)-1H-indazol-4-yl)pyrazolo[1,5-a]pyridin-2-yl)-2-fluorocyclopropane-1-carboxamide] was < 0.1 µM; that for `CNC(=O)c1c(F)c(Cl)c(-c2ccn3nc(NC(=O)[C@@H]4C[C@@H]4F)cc3c2)c2cn[nH]c12` [Example 560, 5-chloro-6-fluoro-4-(2-((1S,2S)-2-fluorocyclopropane-1-carboxamido)pyrazolo[1,5-a]pyridin-5-yl)-N-methyl-1H-indazole-7-carboxamide] was < 0.1 µM; that for `O=C(Nc1nc2ccc(-c3c(C(F)(F)F)c(F)cc4[nH]ncc34)cc2s1)[C@@H]1C[C@@H]1F` [Example 50, (1S,2S)-2-fluoro-N-(6-(6-fluoro-5-(trifluoromethyl)-1H-indazol-4-yl)benzo[d]thiazol-2-yl)cyclopropane-1-carboxamide] was < 0.1 µM.
For the compound `Cc1ccc2[nH]ncc2c1-c1ccc2nc(NC(=O)[C@@H]3C[C@@H]3F)cn2c1` [Example 221, (1S,2S)-2-fluoro-N-(6-(5-methyl-1H-indazol-4-yl)imidazo[1,2-a]pyridin-2-yl)cyclopropane-1-carboxamide], the IC50 was 0.101 to 0.5 µM.
The value for `CSc1c(F)c(F)c2[nH]ncc2c1-c1ccn2nc(NC(=O)[C@H]3C[C@@H]3F)cc2c1` [Example 600, (1R,2S)-N-(5-(6,7-difluoro-5-(methylthio)-1H-indazol-4-yl)pyrazolo[1,5-a]pyridin-2-yl)-2-fluorocyclopropane-1-carboxamide] was < 0.1 µM; that for `Cc1c(F)cc2[nH]ncc2c1-c1ccc2nc(NC(=O)C3CC3)cn2c1` [Example 245, N-(6-(6-fluoro-5-methyl-1H-indazol-4-yl)imidazo[1,2-a]pyridin-2-yl)cyclopropanecarboxamide] was < 0.1 µM; that for `CCc1c(F)c(N(C)C)c2[nH]ncc2c1-c1ccc2nc(NC(=O)[C@@H]3C[C@@H]3F)sc2c1` [Example 102, (1S,2S)-N-(6-(7-(dimethylamino)-5-ethyl-6-fluoro-1H-indazol-4-yl)benzo[d]thiazol-2-yl)-2-fluorocyclopropane-1-carboxamide] was < 0.1 µM.
The figure for `Cc1cccn1-c1c(F)c(Cl)c(-c2ccn3nc(NC(=O)[C@@H]4C[C@@H]4F)cc3c2)c2cn[nH]c12` [Example 644, (1S,2S)-N-(5-(5-chloro-6-fluoro-7-(2-methyl-1H-pyrrol-1-yl)-1H-indazol-4-yl)pyrazolo[1,5-a]pyridin-2-yl)-2-fluorocyclopropane-1-carboxamide] is < 0.1 µM; for `Cc1c(F)c(OC(F)(F)F)c2[nH]ncc2c1-c1ccc2nc(NC(=O)[C@@H]3C[C@@H]3F)cn2c1` [Example 345, (1S,2S)-2-fluoro-N-(6-(6-fluoro-5-methyl-7-(trifluoromethoxy)-1H-indazol-4-yl)imidazo[1,2-a]pyridin-2-yl)cyclopropane-1-carboxamide] it is < 0.1 µM; for `O=C(Nc1cn2cc(-c3c(CO)c(F)cc4[nH]ncc34)ccc2n1)C1CC1` [Example 251, N-(6-(6-fluoro-5-(hydroxymethyl)-1H-indazol-4-yl)imidazo[1,2-a]pyridin-2-yl)cyclopropanecarboxamide] it is > 1 µM.
The value for `Cc1c(F)c(OCCNC(N)=O)c2[nH]ncc2c1-c1ccn2nc(NC(=O)[C@@H]3C[C@@H]3F)cc2c1` [Example 544, (1S,2S)-2-fluoro-N-(5-(6-fluoro-5-methyl-7-(2-ureidoethoxy)-1H-indazol-4-yl)pyrazolo[1,5-a]pyridin-2-yl)cyclopropane-1-carboxamide] was < 0.1 µM.
Turning to `Cc1c(F)c(C(F)F)c2[nH]ncc2c1-c1ccc2nc(NC(=O)[C@@H]3C[C@@H]3F)sc2n1` [Example 217, (1S,2S)-N-(5-(7-(difluoromethyl)-6-fluoro-5-methyl-1H-indazol-4-yl)thiazolo[5,4-b]pyridin-2-yl)-2-fluorocyclopropane-1-carboxamide], the 50% inhibitory concentration (IC50) was < 0.1 µM.
In the case of `Cc1c(F)c(N(C)C)c2[nH]ncc2c1-c1ccc2nc(NC(=O)[C@@H]3C[C@@H]3F)cn2c1` [Example 273, (1S,2S)-N-(6-(7-(dimethylamino)-6-fluoro-5-methyl-1H-indazol-4-yl)imidazo[1,2-a]pyridin-2-yl)-2-fluorocyclopropane-1-carboxamide], the IC50 is < 0.1 µM.
Turning to `CN(CCc1ccncc1)c1c(F)c(Cl)c(-c2ccn3nc(NC(=O)[C@@H]4C[C@@H]4F)cc3c2)c2cn[nH]c12` [Example 616, (1S,2S)-N-(5-(5-chloro-6-fluoro-7-(methyl(2-(pyridin-4-yl)ethyl)amino)-1H-indazol-4-yl)pyrazolo[1,5-a]pyridin-2-yl)-2-fluorocyclopropane-1-carboxamide], the IC50 is < 0.1 µM.
The figure for `CC(Nc1c(F)c(Cl)c(-c2ccc3nc(NC(=O)[C@@H]4C[C@@H]4F)cn3c2)c2cn[nH]c12)C1CC1` (stereo partly drawn) [Example 420, (1S,2S)-N-(6-(5-chloro-7-((1-cyclopropylethyl)amino)-6-fluoro-1H-indazol-4-yl)imidazo[1,2-a]pyridin-2-yl)-2-fluorocyclopropane-1-carboxamide] is < 0.1 µM; for `CCc1c(F)cc2[nH]ncc2c1-c1ccc2nc(NC(=O)[C@@H]3C[C@@H]3F)sc2c1` [Example 46, (1S,2S)-N-(6-(5-ethyl-6-fluoro-1H-indazol-4-yl)benzo[d]thiazol-2-yl)-2-fluorocyclopropane-1-carboxamide] it is < 0.1 µM.
